Data taken from patent publication US9512114B2, “Substituted aminopyrimidine compounds and methods of use” (Calitor Sciences, LLC, priority 2013, dated 2016).

Key:
PI3K (p120γ) (h) = PI3K (p120γ) (h) (Homo sapiens (Human), UniProt P48736); assay: PI3K (p120γ) (h) non-radioactive HTRF kinase assay; assay type: biochemical; conditions: performed at Millipore UK Ltd
Method: The above assay procedure can be used to determine the IC50 for inhibition and/or the inhibition constant, Ki.
PI3K (p120γ) (h) [Non-Radioactive Assay]
PI3K (p120γ) (h) is incubated in assay buffer containing 10 μM phosphatidylinositol-4, 5-bisphosphate and MgATP (concentration as required). The reaction is initiated by the addition of the MgATP mix. After incubation for 30 minutes at room temperature, the reaction is stopped by the addition of stop solution containing EDTA and biotinylated phosphatidylinositol-3,4,5-trisphosphate. Finally, detection buffer is added, which contains europium-labelled anti-GST monoclonal antibody, GST-tagged GRP1 PH domain and streptavidin-allophycocyanin. The plate is then read in timeresolved fluorescence mode and the homogenous time-resolved fluorescence (HTRF) signal is determined according to the formula HTRF=10000×(Em665 nm/Em620 nm).
The kinase assays described herein were performed at Millipore UK Ltd, Dundee Technology Park, Dundee DD2 1SW, UK.

[1] = Pharmacokinetic profiles in rats; assay type: in vivo, rat; conditions: for Cl/F / AUC(0-t) / half-life / Vd: iv dosing 1 mg/kg; for F: oral vs iv (iv 1 mg/kg; p.o. generally 5 or 10 mg/kg); for AUC(0-t) / half-life / Vd: rat, plasma; for Vd: read-out: Vss
Method in brief: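 In rats, dogs and monkeys, IV dose was generally 1 or 2 mg/kg. Oral dose was generally 5 or 10 mg/kg in rats and 10 mg/kg in dogs and monkeys, given as solution, suspension or capsule. Plasma sampled over up to 24 h and analysed by LC/MS/MS.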

[2] = Pharmacokinetic profiles in dogs; assay type: in vivo; conditions: Dog; for clearance / AUC(0-t) / half-life / Vd: iv dosing 1 mg/kg; for F: oral vs iv (iv 1 mg/kg; p.o. generally 10 mg/kg); for AUC(0-t) / half-life / Vd: plasma; for Vd: read-out: Vss
Method: (§1) The compounds disclosed herein are assessed in pharmacokinetic studies in mice, rats, dogs or monkeys. The compounds are administered as a water solution, 2% HPMC+1% TWEEN®80 in water solution, 5% DMSO+5% solutol in saline, 4% MC suspension or capsule. For the intravenous administration, the animals are generally given at 1 or 2 mg/kg dose. For the oral (p.o.) dosing, mice and rats are generally given 5 or 10 mg/kg dose, and dogs and monkeys are generally given 10 mg/kg dose. The blood samples (0.3 mL) are drawn at 0.25, 0.5, 1.0, 2.0, 3.0, 4.0, 6.0, 8.0, 12 and 24 h time points or 0.083, 0.25, 0.5, 1.0, 2.0, 4.0, 6.0, 8.0 and 24 h time points and centrifuged at 3,000 or 4000 rpm for 2 to 10 min. The plasma solutions are collected, stored at −20° C. or −70° C. until analyzed by LC/MS/MS as described above.

[3] = Pharmacokinetic profiles in monkeys; assay type: in vivo; conditions: Monkey; for Cl/F / AUC(0-t) / half-life / Vd: iv dosing 1 mg/kg; for F: oral vs iv (iv 1 mg/kg; p.o. generally 10 mg/kg); for AUC(0-t) / half-life / Vd: plasma; for Vd: read-out: Vss
Method: as §1

PI3K (p120γ) (h), sequence (P48736 whole entry): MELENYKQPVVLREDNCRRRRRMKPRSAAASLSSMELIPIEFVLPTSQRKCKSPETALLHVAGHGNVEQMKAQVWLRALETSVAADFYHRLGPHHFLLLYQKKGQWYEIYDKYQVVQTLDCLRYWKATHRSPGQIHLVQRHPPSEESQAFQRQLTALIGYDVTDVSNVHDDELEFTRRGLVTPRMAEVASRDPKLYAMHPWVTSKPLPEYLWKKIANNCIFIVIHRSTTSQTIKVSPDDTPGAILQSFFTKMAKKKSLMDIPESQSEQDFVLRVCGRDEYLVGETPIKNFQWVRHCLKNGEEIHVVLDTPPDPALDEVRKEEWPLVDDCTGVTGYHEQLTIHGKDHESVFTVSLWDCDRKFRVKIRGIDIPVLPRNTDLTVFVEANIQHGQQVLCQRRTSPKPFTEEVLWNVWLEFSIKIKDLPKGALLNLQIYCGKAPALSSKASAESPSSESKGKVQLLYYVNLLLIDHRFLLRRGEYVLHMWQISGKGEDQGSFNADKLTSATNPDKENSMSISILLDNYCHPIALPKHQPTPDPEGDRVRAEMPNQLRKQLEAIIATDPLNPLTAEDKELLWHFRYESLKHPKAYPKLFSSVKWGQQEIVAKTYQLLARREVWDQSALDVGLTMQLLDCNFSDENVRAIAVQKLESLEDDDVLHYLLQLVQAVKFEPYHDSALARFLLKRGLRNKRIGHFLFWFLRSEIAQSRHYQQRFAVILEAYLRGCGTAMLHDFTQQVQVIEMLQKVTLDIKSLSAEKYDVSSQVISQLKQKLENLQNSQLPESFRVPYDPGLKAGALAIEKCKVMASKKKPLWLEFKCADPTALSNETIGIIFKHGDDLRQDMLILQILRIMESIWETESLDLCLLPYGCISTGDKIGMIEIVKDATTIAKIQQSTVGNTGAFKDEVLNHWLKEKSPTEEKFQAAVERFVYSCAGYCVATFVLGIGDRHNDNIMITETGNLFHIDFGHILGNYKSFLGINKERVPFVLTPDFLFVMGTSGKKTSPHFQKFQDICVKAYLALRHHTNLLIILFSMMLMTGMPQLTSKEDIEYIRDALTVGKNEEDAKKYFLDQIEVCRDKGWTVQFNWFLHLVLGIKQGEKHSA

SMILES | IC50 (PI3K (p120γ) (h)) | Cl/F [1] | F [1] | AUC(0-t) [1] | half-life [1] | Vd [1] | clearance [2] | F [2] | AUC(0-t) [2] | half-life [2] | Vd [2] | Cl/F [3] | F [3] | AUC(0-t) [3] | half-life [3] | Vd [3]
Cc1nnc(-c2c(N)ncnc2N[C@@H](C)c2cc3cccc(-c4cnn(C)c4)c3c(=O)n2C2CC2)o1 [Ex. 25, (S)-3-(1-((6-amino-5-(5-methyl-1,3,4-oxadiazol-2-yl)pyrimidin-4-yl)amino)ethyl)-2-cyclopropyl-8-(1-methyl-1H-pyrazol-4-yl)isoquinolin-1 (2H)-one] | 325 nM | 33.3 mL/min/kg | 81.0% | 497 ng·h/mL | 1.32 h | 3.31 L/kg |  |  |  |  |  |  |  |  |  | 
Cc1nnc(-c2c(N)ncnc2N[C@@H](C)c2cc3cccc(Cl)c3c(=O)n2C2CC2)o1 [Ex. 4, (S)-3-(1-((6-amino-5-(5-methyl-1,3,4-oxadiazol-2-yl)pyrimidin-4-yl)amino)ethyl)-8-chloro-2-cyclopropylisoquinolin-1(2H)-one] | 387 nM | 33.3 mL/min/kg | 78.78% | 498 ng·h/mL | 0.98 h | 2.4 L/kg |  |  |  |  |  |  |  |  |  | 
Cc1noc(-c2c(N)ncnc2N[C@@H](C)c2cc3cccc(-c4cnn(C)c4)c3c(=O)n2C2CC2)n1 [Ex. 26, (S)-3-(1-((6-amino-5-(3-methyl-1,2,4-oxadiazol-5-yl)pyrimidin-4-yl)amino)ethyl)-2-cyclopropyl-8-(1-methyl-1H-pyrazol-4-yl)isoquinolin-1 (2H)-one] | 65 nM | 50.3 mL/min/kg | 121.0% | 337 ng·h/mL | 0.84 h | 3.14 L/kg |  |  |  |  |  |  |  |  |  | 
Cc1noc(-c2c(N)ncnc2N[C@@H](C)c2cc3cccc(Cl)c3c(=O)n2-c2ccccc2)n1 [Ex. 8, (S)-3-(1-((6-amino-5-(3-methyl-1,2,4-oxadiazol-5-yl)pyrimidin-4-yl)amino)ethyl)-8-chloro-2-phenylisoquinolin-1(2H)-one] | 74 nM | 57.8 mL/min/kg | 93.06% | 291 ng·h/mL | 0.92 h | 1.94 L/kg | 12.2 mL/min/kg | 52.85% | 1350 ng·h/mL | 1.7 h | 1.43 L/kg | 24.3 mL/min/kg | 13.1% | 711 ng·h/mL | 0.65 h | 1.2 L/kg
Cc1nnc(-c2c(N)ncnc2N[C@@H](C)c2cc3cccc(Cl)c3c(=O)n2-c2ccccc2)o1 [Ex. 9, (S)-3-(1-((6-amino-5-(5-methyl-1,3,4-oxadiazol-2-yl)pyrimidin-4-yl)amino)ethyl)-8-chloro-2-phenylisoquinolin-1(2H)-one] | 255 nM | 17.3 mL/min/kg | 66.87% | 964 ng·h/mL | 1.38 h | 1.04 L/kg | 23.7 mL/min/kg | 72.99% | 695 ng·h/mL | 1.25 h | 2.04 L/kg | 14.8 mL/min/kg | 179.7% | 1120 ng·h/mL | 1.23 h | 1.17 L/kg
